Structures can show the parent of a compound that is named as a salt.
The molecules below were run on bacterial strains that express the class D cephalosporinase OXA-15 (assay: Synergy MIC / standard BLI potentiation MIC assay, strains expressing OXA-15). Conditions: in presence of a β-lactam; comparator Avibactam (CCC).
Assay type: cell-based, E. coli
Protocol: (§1) Unless otherwise indicated, the activity of the BLI compounds can be described by the MIC value obtained from a Synergy MIC assay or a BLI potentiation assay (e.g as described herein), both of which are run in the presence of a β-lactam.
(§2) The experimental protocol was performed according to Clinical and Laboratory Standards Institute (CLSI) guidelines with modifications as described below (CLSI guidelines can be derived from the CLSI document M07-A9 published in January 2012: “Methods for Dilution Antimicrobial Susceptibility Tests for Bacteria That Grow Aerobically; Approved Standard-Ninth Edition”).
(§3) To prepare for MIC testing, frozen glycerol stocks of clinical isolates (Klebsiella pneumoniae, Eschericia coli, Enterobacter spp, Citrobacter spp, or Pseudomonas aeruginosa) were used to streak for isolated colonies on rich, non-selective, tryptic soy agar containing 5% sheep's blood (TSAB). Frozen glycerol stocks of laboratory engineered, isogenic E. coli strains, which contain cloned β-lactamase expressing plasmids were used to streak for isolated colonies on rich, selective LB agar supplemented with 25 μg/mL tetracycline to maintain the plasmid. All strains were incubated at 37° C. for 18-24 hrs.
(§4) On the day of testing, primary cultures were started by scraping off 5-10 colonies from the TSAB plates containing clinical strains or the tetracycline supplemented LB plates containing engineered strains. The clinical strain material was suspended in ˜5 mL of cation adjusted Mueller Hinton Broth (CAMHB) in 14 mL culture tubes. The engineered strain material was suspended in CAMHB (supplemented with 25 μg/mL tetracycline) in 14 mL culture tubes. All strains were incubated at 37° C. with aeration (200 rpm) for ˜2 hrs until the optical density at 600 nm (OD600) was ≧0.1.
(§5) The two compound components of the assay were each diluted in CAMHB and added to the 96-well broth microdilution assay plates. 50 μL of the β-lactam was added to each well of the assay plate in 2-fold dilutions with final concentrations ranging from 128 to 0.13 μg/mL. 25 μL of the BLI compound was added to all wells in the broth microdilution plates at a final concentration of 4 μg/mL. Inoculum cultures were prepared by standardizing the primary cultures to OD600=0.1 and then adding 20 μL of the adjusted primary culture per 1 mL CAMHB for clinical strains or CAMHB (supplemented with tetracycline at 100 μg/mL) for engineered strains, so that the final inoculum density was ˜10^5 colony forming units per milliliter. Diluted inoculum cultures were used to inoculate 25 μL per well in 96-well broth microdilution assay plates. The final volume of each well was 100 μL and contained a β-lactam at different concentrations, a BLIcompound at 4 μg/mL concentration, the bacterial culture at an OD600 of approximately 0.001 and when necessary tetracycline at 25 μg/mL.
(§6) Plates were incubated for 18-20 hours at 37° C. with aeration (200 rpm). Following incubation, growth was confirmed visually placing plates over a viewing apparatus (stand with a mirror underneath) and then OD600 was measured using a SpectraMax 340PC384 plate reader (Molecular Devices, Sunnyvale, Calif.). Growth was defined as turbidity that could be detected with the naked eye or achieving minimum OD600 of 0.1. MIC values were defined as the lowest concentration producing no visible turbidity.
(§7) The synergy MIC (sMIC) assay determines the concentration of the BLI required to potentiate the activity of a fixed concentration of a β-lactam antibiotic against β-lactamase producing bacterial strains. The experimental protocol was performed according to Clinical and Laboratory Standards Institute (CLSI) guidelines with modifications as described below (CLSI guidelines can be derived from the CLSI document M07-A9 published in January 2012: “Methods for Dilution Antimicrobial Susceptibility Tests for Bacteria That Grow Aerobically; Approved Standard-Ninth Edition”). […]

Row | SMILES | activity against bacterial strains that express OXA-15, compared with Avibactam
1 | Nc1nnc([C@@H]2CC[C@@H]3CN2C(=O)N3OS(=O)(=O)O)o1 [Compound 707, (2S,5R)-2-(5-amino-1,3,4-oxadiazol-2-yl)-7-oxo-1,6-diazabicyclo[3.2.1]octan-6-yl hydrogen sulfate] | more active than Avibactam
2 | N[C@H]1C[C@H](NCc2nnc([C@@H]3CC[C@@H]4CN3C(=O)N4OS(=O)(=O)O)o2)C1 [Compound 757, (2S,5R)-2-(5-((((1r,3S)-3-aminocyclobutyl)amino)methyl)-1,3,4-oxadiazol-2-yl)-7-oxo-1,6-diazabicyclo[3.2.1]octan-6-yl hydrogen sulfate] | more active than Avibactam
3 | NCC(O)Cc1nnc([C@@H]2CC[C@@H]3CN2C(=O)N3OS(=O)(=O)O)o1 (stereo partly drawn) [Compound 733, (2S,5R)-2-(5-(3-amino-2-hydroxypropyl)-1,3,4-oxadiazol-2-yl)-7-oxo-1,6-diazabicyclo[3.2.1]octan-6-yl hydrogen sulfate] | more active than Avibactam
4 | O=C1N2C[C@@H](CC[C@H]2c2nnc(N3CCNCC3)o2)N1OS(=O)(=O)O [Compound 713, (2S,5R)-7-oxo-2-(5-(piperazin-1-yl)-1,3,4-oxadiazol-2-yl)-1,6-diazabicyclo[3.2.1]octan-6-yl hydrogen sulfate] | more active than Avibactam
5 | NC1CCN(c2nnc([C@@H]3CC[C@@H]4CN3C(=O)N4OS(=O)(=O)O)o2)CC1 [Compound 773, (2S,5R)-2-(5-(4-aminopiperidin-1-yl)-1,3,4-oxadiazol-2-yl)-7-oxo-1,6-diazabicyclo[3.2.1]octan-6-yl hydrogen sulfate] | more active than Avibactam
6 | N[C@H]1CC[C@@H](c2nnc([C@@H]3CC[C@@H]4CN3C(=O)N4OS(=O)(=O)O)o2)CC1 [Compound 780, (2S,5R)-2-(5-((1s,4R)-4-aminocyclohexyl)-1,3,4-oxadiazol-2-yl)-7-oxo-1,6-diazabicyclo[3.2.1]octan-6-yl hydrogen sulfate] | more active than Avibactam
7 | O=C1N2C[C@@H](CC[C@H]2c2nnc(CC3CNC3)o2)N1OS(=O)(=O)O [Compound 725, (2S,5R)-2-(5-(azetidin-3-ylmethyl)-1,3,4-oxadiazol-2-yl)-7-oxo-1,6-diazabicyclo[3.2.1]octan-6-yl hydrogen sulfate] | more active than Avibactam
8 | O=C1N2C[C@@H](CC[C@H]2c2nnc(CCCN3CCNCC3)o2)N1OS(=O)(=O)O [Compound 792, (2S,5R)-7-oxo-2-(5-(3-(piperazin-1-yl)propyl)-1,3,4-oxadiazol-2-yl)-1,6-diazabicyclo[3.2.1]octan-6-yl hydrogen sulfate] | more active than Avibactam
9 | O=C1N2C[C@@H](CC[C@H]2c2nnc(CNC3CCNCC3)o2)N1OS(=O)(=O)O [Compound 769, (2S,5R)-7-oxo-2-(5-((piperidin-4-ylamino)methyl)-1,3,4-oxadiazol-2-yl)-1,6-diazabicyclo[3.2.1]octan-6-yl hydrogen sulfate] | more active than Avibactam
10 | NCC(N)c1nnc([C@@H]2CC[C@@H]3CN2C(=O)N3OS(=O)(=O)O)o1 (stereo partly drawn) [Compound 717, (2S,5R)-2-(5-(1,2-diaminoethyl)-1,3,4-oxadiazol-2-yl)-7-oxo-1,6-diazabicyclo[3.2.1]octan-6-yl hydrogen sulfate] | more active than Avibactam
11 | O=C1N2C[C@@H](CC[C@H]2c2nnc(C3CCNCC3)s2)N1OS(=O)(=O)O [Compound 719, (2S,5R)-7-oxo-2-(5-(piperidin-4-yl)-1,3,4-thiadiazol-2-yl)-1,6-diazabicyclo[3.2.1]octan-6-yl hydrogen sulfate] | more active than Avibactam
12 | N=C(N)N1CCC(c2nnc([C@@H]3CC[C@@H]4CN3C(=O)N4OS(=O)(=O)O)o2)CC1 [Compound 712, (2S,5R)-2-(5-(1-carbamimidoylpiperidin-4-yl)-1,3,4-oxadiazol-2-yl)-7-oxo-1,6-diazabicyclo[3.2.1]octan-6-yl hydrogen sulfate] | more active than Avibactam
13 | O=C1N2C[C@@H](CC[C@H]2c2nnc([C@@H]3CNCCN3)o2)N1OS(=O)(=O)O [Compound 778, (2S,5R)-7-oxo-2-(5-((S)-piperazin-2-yl)-1,3,4-oxadiazol-2-yl)-1,6-diazabicyclo[3.2.1]octan-6-yl hydrogen sulfate] | more active than Avibactam
14 | NCCNCCc1nnc([C@@H]2CC[C@@H]3CN2C(=O)N3OS(=O)(=O)O)o1 [Compound 716, (2S,5R)-2-(5-(2-((2-aminoethyl)amino)ethyl)-1,3,4-oxadiazol-2-yl)-7-oxo-1,6-diazabicyclo[3.2.1]octan-6-yl hydrogen sulfate] | more active than Avibactam
15 | N[C@H]1CC[C@H](c2nnc([C@@H]3CC[C@@H]4CN3C(=O)N4OS(=O)(=O)O)o2)CC1 [Compound 781, (2S,5R)-2-(5-((1r,4S)-4-aminocyclohexyl)-1,3,4-oxadiazol-2-yl)-7-oxo-1,6-diazabicyclo[3.2.1]octan-6-yl hydrogen sulfate] | more active than Avibactam
16 | N=C(N)NCc1nnc([C@@H]2CC[C@@H]3CN2C(=O)N3OS(=O)(=O)O)o1 [Compound 704, (2S,5R)-2-(5-(guanidinomethyl)-1,3,4-oxadiazol-2-yl)-7-oxo-1,6-diazabicyclo[3.2.1]octan-6-yl hydrogen sulfate] | more active than Avibactam
17 | O=C1N2C[C@@H](CC[C@H]2c2nnc(N3CCNCC3)s2)N1OS(=O)(=O)O [Compound 797, (2S,5R)-7-oxo-2-(5-(piperazin-1-yl)-1,3,4-thiadiazol-2-yl)-1,6-diazabicyclo[3.2.1]octan-6-yl hydrogen sulfate] | more active than Avibactam
18 | N=C(N)N[C@H]1C[C@H](c2nnc([C@@H]3CC[C@@H]4CN3C(=O)N4OS(=O)(=O)O)o2)C1 [Compound 748, (2S,5R)-2-(5-((1r,3S)-3-guanidinocyclobutyl)-1,3,4-oxadiazol-2-yl)-7-oxo-1,6-diazabicyclo[3.2.1]octan-6-yl hydrogen sulfate] | more active than Avibactam
19 | NCC(O)c1nnc([C@@H]2CC[C@@H]3CN2C(=O)N3OS(=O)(=O)O)o1 (stereo partly drawn) [Compound 715, (2S,5R)-2-(5-(2-amino-1-hydroxyethyl)-1,3,4-oxadiazol-2-yl)-7-oxo-1,6-diazabicyclo[3.2.1]octan-6-yl hydrogen sulfate] | more active than Avibactam
20 | N=C(N)NCCCc1nnc([C@@H]2CC[C@@H]3CN2C(=O)N3OS(=O)(=O)O)o1 [Compound 714, (2S,5R)-2-(5-(3-guanidinopropyl)-1,3,4-oxadiazol-2-yl)-7-oxo-1,6-diazabicyclo[3.2.1]octan-6-yl hydrogen sulfate] | more active than Avibactam

What follows are molecules tested on bacterial strains that express KPC β-lactamases (assay: Synergy MIC / standard BLI potentiation MIC assay, strains expressing KPC β-lactamases). Conditions: more active for at least one KPC strain and/or better spectrum; comparator Avibactam.
Assay type: cell-based, isogenic E. coli and clinical isolates
Protocol: as §1, §2, §3, §4, §5, §6, §7

Row | SMILES | activity and/or spectrum of activity against bacterial strains that express KPC β-lactamases, compared with Avibactam
21 | NC1CCN(CCc2nnc([C@@H]3CC[C@@H]4CN3C(=O)N4OS(=O)(=O)O)o2)CC1 [Compound 775, (2S,5R)-2-(5-(2-(4-aminopiperidin-1-yl)ethyl)-1,3,4-oxadiazol-2-yl)-7-oxo-1,6-diazabicyclo[3.2.1]octan-6-yl hydrogen sulfate] | more active than Avibactam

Reference: patent US8933233B2, “1,3,4-oxadiazole and 1,3,4-thiadiazole β-lactamase inhibitors” (priority 2012, dated 2015)
